{
  "source": "patent US7476316B2",
  "about": "“Molecularly imprinted polymers (MIPS) for the selective removal of inorganic contaminants from liquids” (priority 2005, dated 2009)",
  "key": {"[1]": {"test": "removal of arsenate from water by ligand-based MIP", "details": "ligand used in suspension polymerization MIP", "from_the_text": "(§1) General classes of cationic ligands that can be used in the present method include, but are not limited to, cationic oxygen containing heterocyclics, cationic nitrogen containing heterocyclics, cationic sulfur containing heterocyclics, cationic phosphorous containing heterocyclics, ammonium salts, phosphonium salts, acylinium salts, metallocenium salts, amidinium salts, imminium salts, and trityl salts. In one embodiment, the ligand can be 4-vinylbenzyl-N,N-dimethyl-N-decylammonium, 4-vinylbenzyl-N-decyl-N-methylglucammonium, N-methyl vinylpyridinium, or 4-vinylbenzyl-N,N-dimethyl-D-glucammonium."}, "[2]": {"test": "removal of gold-containing cations from water by ligand-based MIP", "details": "ligand used in cationic molecularly imprinted polymer", "from_the_text": "as §1"}, "[3]": {"details": "cited from earlier work"}},
  "data": [
    {"smiles": "C=Cc1ccc(C[N+](C)(CCCCCCCCCC)C[C@H](O)[C@@H](O)[C@H](O)[C@H](O)CO)cc1.[I-]", "note": "(stereo partly drawn) [Example 3, N-(4-Vinylbenzyl)-N-decyl-N-methylglucammonium iodide]", "values": [
      {"measurement": "removal of arsenate from water", "setting": "[1]", "result": "good results"}
    ]},
    {"smiles": "C=Cc1ccc(C[N+](C)(C)CCCCCCCCCC)cc1.[Cl-]", "note": "[Example 1, N-(4-vinylbenzyl)-N-decyl-N,N-dimethylammonium chloride]", "values": [
      {"measurement": "removal of gold-containing cations from water", "setting": "[2]", "result": "particularly good results"},
      {"measurement": "removal of arsenate from water", "setting": "[1]", "result": "good results"}
    ]},
    {"smiles": "CCCCCO", "note": "[Example 1-pentanol, 1-pentanol]", "values": [
      {"measurement": "soluble in water", "setting": "[3]; in water", "result": 2.3, "unit": "% weight/weight"}
    ]},
    {"smiles": "CCCCC", "note": "[n-pentane]", "values": [
      {"measurement": "miscibility with water", "setting": "[3]", "result": "completely immiscible"}
    ]},
    {"smiles": "OCCCCCO", "note": "[1,5-pentanediol]", "values": [
      {"measurement": "miscibility with water", "setting": "[3]", "result": "completely miscible"}
    ]}
  ]
}
